Laboratory results published in US8580321B2, “Method for reducing the effects of chemotherapy using flagellin related polypeptides” (priority 2003, dated 2013).
Where two headings read alike, the source gives them in different places.

Columns and labels:
[1] = tested on: NIH Swiss mice treated with cisplatinum; details: 10 mg/kg, after two weeks, n=11
[2] = tested on: NIH Swiss mice treated with cisplatinum; details: i.p.; cited from earlier work
[3] = in vivo; cited from earlier work
[4] = tested on: lethally irradiated mice; details: cited from earlier work
[5] = tested on: NF-κB; test: NF-κB-regulated luciferase reporter assay in H116 human colon cancer cells; format: cell-based
From the text: While translocation of NF-κB to the nucleus is a crucial step in induction of NF-κB-regulated inhibitors of apoptosis, it is not sufficient in itself. To directly test the ability of selected fragments to induce expression of NF-κB-regulated genes, we performed reporter assay experiments. Flagellin and the AA′, BB′, A′ and B′ fragments were used for treatment of H116 human colon cancer cells carrying luciferase gene under a NF-κB-responsive promoter. The reporter construct contained three NF-κB-binding sites from the E-selectin promoter combined with a Hsp70 minimal promoter that is routinely used for the detection of NF-κB status of cells. Luciferase activity was measured in cell lysates six hours after addition of flagellin or its truncated fragments into the medium. TNF was used as positive control.
In order to study the ability of the AA′ fragments to directly activate NF-κB-regulated transcription, we performed reporter assay experiments as described above for a wide range of concentrations of flagellin, original AA′ and AA′-derived fragments.

[6] = tested on: NF-κB; test: EMSA of NF-κB binding activity in HT29 human colon cancer cells; format: cell-based; details: fragments 1 mg/ml, 15 min
Experimental: We further minimized the AA′ flagellin fragment by producing additional fragments through stepwise removal of peptide fragments from its N-terminal half (Table 2). […] NF-κB binding activity in HT29 cells was stimulated with TNFa (10 ng/ml), or flagellin fragments (1 mg/ml) for 15 min.

[7] = tested on: NF-κB; test: EMSA of NF-κB translocation / DNA binding in A549 cells; details: A549 cells, 1 μg/ml, 45 min, EMSA of whole cell extracts
[8] = tested on: C57B1/6J mice treated with gamma radiation; test: Radioprotection of mice by p53 inhibitor PFTα; format: in vivo, mouse; details: I.P. 10 mg/kg
[9] = tested on: C57B1/6J mice treated with gamma radiation; details: Komarov et al 1999; cited from earlier work

N.N.[Cl][Pt][Cl] [cisplatinum]
mean loss in body weight, cisplatinum alone [1]: ~30%
maximum tolerable dose [MTD] [2]: 10 mg/kg
beta deterioration [3]: 60 min

SCF: stem cell factor (SCF, c-kit ligand), hematopoietic cytokine and radioprotectant
DMF ([4]; lethally irradiated mice): 1.3-1.35

AA′n1-170: (1-170)-Linker-(402-505), SEQ ID NO: 30
level of NF-κB-regulated transcription relative to flagellin ([5]; reporter assay, over the studied range of concentrations): comparable to such of flagellin
NF-κB reporter activity relative to flagellin ([5]; very low concentration range): more active than flagellin
induction of NF-κB translocation [6]: induce NF-κB translocation
level of NF-κB translocation relative to flagellin [6]: comparable to that of flagellin
NF-κB Stimulation [7]: Yes

C[C@]12CC[C@H]3[C@@H](CC=C4C[C@@H](O)CC[C@@]43C)[C@@H]1CC[C@@H]2O [5-AED, 5-androstenediol, reference compound]
DMF ([4]; subcutaneous injection in mice 24 h before irradiation): 1.26

Cc1ccc(C(=O)Cn2c3c(sc2=N)CCCC3)cc1 [PFTα, pifithrin-alpha]
protection from single 9 Gy and fractioned cumulative 12.5 Gy (5×2.5 Gy) [8]: protects
survival after single 12.5 and 25 Gy doses of IR [8]: no effect on survival
lethality of wild type animals receiving 6-11 Gy [9]: could be reduced

B1: Flt-3 ligand: cytokine conferring radioprotection (protein, UniProt P49771 27-235, looked up)
Fms-related tyrosine kinase 3 …: TQDCSFQHSPISSDFAVKIRELSDYLLQDYPVTVASNLQDEELCGGLWRLVLAQRWMERLKTVAGSKMQGLLERVNTEIHFVTKCAFQPPPSCLRFVQTNISRLLQETSEQLVALKPWITRQNFSRCLELQCQPDSSTLPPPWSPRPLEATAPTAPQPPLLLLLLLPVGLLLLAAAWCLHWQRTRRRTPRPGEQVPPVPSPQDLLLVEH
DMF ([4]; lethally irradiated mice): > 1.2
30-day survival at LD100/30 ([4]; mice): 70-80%
